According to patent publication US8501446B2 (Vertex Pharmaceuticals Incorporated, priority 2004, dated 2013):
pKi: −log10 of the molar value.

Columns and labels:
Assay type in all cases: biochemical
[1] = biological target: T1, JAK3 (Homo sapiens, UniProt P52333); test: JAK3 inhibition assay (standard radioactive enzyme assay); details: average Ki if more than one value determined
T1 sequence (P52333 1-1124): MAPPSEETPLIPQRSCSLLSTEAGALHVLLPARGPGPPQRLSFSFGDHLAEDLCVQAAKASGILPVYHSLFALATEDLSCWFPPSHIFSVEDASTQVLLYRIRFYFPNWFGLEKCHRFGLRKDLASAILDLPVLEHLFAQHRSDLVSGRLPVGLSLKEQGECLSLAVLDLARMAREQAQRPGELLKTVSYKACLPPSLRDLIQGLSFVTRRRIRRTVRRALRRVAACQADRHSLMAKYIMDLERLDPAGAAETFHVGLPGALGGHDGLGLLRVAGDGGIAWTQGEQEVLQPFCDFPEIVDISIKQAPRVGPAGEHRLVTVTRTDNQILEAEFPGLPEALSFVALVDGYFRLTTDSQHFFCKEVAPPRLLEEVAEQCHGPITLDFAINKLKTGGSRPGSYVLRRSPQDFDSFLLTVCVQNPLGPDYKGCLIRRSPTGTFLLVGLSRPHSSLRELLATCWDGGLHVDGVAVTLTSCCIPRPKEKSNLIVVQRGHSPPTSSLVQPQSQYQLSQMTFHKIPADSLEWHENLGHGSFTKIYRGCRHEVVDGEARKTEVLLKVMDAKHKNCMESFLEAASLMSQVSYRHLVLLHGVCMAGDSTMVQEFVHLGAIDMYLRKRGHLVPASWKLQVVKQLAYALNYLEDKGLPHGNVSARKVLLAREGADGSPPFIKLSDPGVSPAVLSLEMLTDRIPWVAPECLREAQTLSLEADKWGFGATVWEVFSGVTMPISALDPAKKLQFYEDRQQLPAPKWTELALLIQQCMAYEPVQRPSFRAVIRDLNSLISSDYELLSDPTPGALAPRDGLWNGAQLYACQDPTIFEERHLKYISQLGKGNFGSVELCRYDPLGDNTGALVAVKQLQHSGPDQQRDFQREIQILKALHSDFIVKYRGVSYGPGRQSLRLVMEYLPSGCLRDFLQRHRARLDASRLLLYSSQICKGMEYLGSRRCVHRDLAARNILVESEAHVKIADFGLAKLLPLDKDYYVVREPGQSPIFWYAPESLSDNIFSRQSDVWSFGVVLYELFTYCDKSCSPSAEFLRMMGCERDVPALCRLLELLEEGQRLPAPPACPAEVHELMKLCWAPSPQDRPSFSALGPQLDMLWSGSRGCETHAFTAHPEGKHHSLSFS

[2] = biological target: JAK2 (Homo sapiens, UniProt O60674); test: JAK2 inhibition assay (radioactive enzyme assay, as for JAK3); details: average Ki if more than one value determined
In short: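 Both kinases: poly(Glu)4Tyr substrate in 100 mM HEPES pH 7.4, 10 mM MgCl2, 1 mM DTT. Run 20 min at 25° C, TCA stop, filter-bound ³³P counted, Ki(app) fitted after background subtraction. JAK3: final [γ-³³P]ATP 5 μM, enzyme added as 2 nM solution. JAK2: final poly(Glu)4Tyr 15 μM, final ATP 12 μM.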

[3] = biological target: ROCK (Homo sapiens, UniProt Q13464); test: ROCK inhibition assay, standard radioactive enzyme assay ("33P")
Protocol: Some compounds were screened for their ability to inhibit ROCK using a standard radioactive enzyme assay. Assays were carried out in a solution containing 100 mM HEPES (pH 7.5), 10 mM MgCl2, 25 mM NaCl, 2 mM DTT, and 1.5% DMSO. Final substrate concentrations in the assay were 13 μM [γ-^33P] ATP (25 mCi ^33P ATP/mmol ATP, Perkin Elmer, Cambridge, Mass./Sigma Chemicals, St Louis, Mo.) and 27 μM Myelin Basic Protein (MBP). Final enzyme concentration in the assay was 5 nM ROCK. Assays were carried out at room temperature. 1.5 μl of DMSO stock containing serial dilutions of the compound of the present invention (concentrations ranging from 10 μM to 2.6 nM) was placed in a 96 well plate. 50 μl of Solution 1 (100 mM HEPES (pH 7.5), 10 mM MgCl2, […]) was added to the plate. The reaction was initiated by addition of 50 μl of Solution 2 (100 mM HEPES (pH 7.5), 10 mM MgCl2, 4 mM DTT, […] and 10 nM ROCK). After 2 hours the reaction was quenched with 50 μL of 30% trichloroacetic acid (TCA, Fisher) containing 9 mM ATP. Transfer of 140 μL of the quenched reaction to a glass fiber filter plate (Corning, Cat. No. 3511) was followed by washing 3 times with 5% TCA. 50 μL of Optima Gold scintillation fluid (Perkin Elmer) was added and the plates were counted on a Top Count (Perkin Elmer). After removing mean background values for all of the data points the data was fit using Prism software to obtain a Ki(app).

[4] = biological target: T2, full length Aurora-A (AA 1-403) (Homo sapiens, UniProt O14965); test: Aurora-A inhibition assay, standard coupled enzyme system; details: average Ki if more than one value determined
T2 construct: full length Aurora-A (AA 1-403)
T2 sequence (O14965 1-403): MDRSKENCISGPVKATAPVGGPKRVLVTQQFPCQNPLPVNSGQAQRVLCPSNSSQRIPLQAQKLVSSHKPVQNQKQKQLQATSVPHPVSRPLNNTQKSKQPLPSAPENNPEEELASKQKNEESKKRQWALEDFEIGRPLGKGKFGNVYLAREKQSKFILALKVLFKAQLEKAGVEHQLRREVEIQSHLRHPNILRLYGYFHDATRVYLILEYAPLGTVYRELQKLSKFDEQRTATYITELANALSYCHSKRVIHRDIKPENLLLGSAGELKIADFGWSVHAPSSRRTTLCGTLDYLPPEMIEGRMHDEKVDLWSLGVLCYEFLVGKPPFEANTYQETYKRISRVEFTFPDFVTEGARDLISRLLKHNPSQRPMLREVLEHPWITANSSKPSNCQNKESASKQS

[5] = biological target: Aurora-B (Homo sapiens, UniProt Q96GD4); test: Aurora-B inhibition assay, radioactive assay; details: average Ki if more than one value determined
In short: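 Aurora-B protein substituted into the standard radioactive kinase format: reaction quenched with TCA, product captured on glass fiber filters and 33P counted. Ki(app) derived by fitting background-corrected counts against inhibitor concentration.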

JAK2, sequence (O60674 whole entry, species assumed): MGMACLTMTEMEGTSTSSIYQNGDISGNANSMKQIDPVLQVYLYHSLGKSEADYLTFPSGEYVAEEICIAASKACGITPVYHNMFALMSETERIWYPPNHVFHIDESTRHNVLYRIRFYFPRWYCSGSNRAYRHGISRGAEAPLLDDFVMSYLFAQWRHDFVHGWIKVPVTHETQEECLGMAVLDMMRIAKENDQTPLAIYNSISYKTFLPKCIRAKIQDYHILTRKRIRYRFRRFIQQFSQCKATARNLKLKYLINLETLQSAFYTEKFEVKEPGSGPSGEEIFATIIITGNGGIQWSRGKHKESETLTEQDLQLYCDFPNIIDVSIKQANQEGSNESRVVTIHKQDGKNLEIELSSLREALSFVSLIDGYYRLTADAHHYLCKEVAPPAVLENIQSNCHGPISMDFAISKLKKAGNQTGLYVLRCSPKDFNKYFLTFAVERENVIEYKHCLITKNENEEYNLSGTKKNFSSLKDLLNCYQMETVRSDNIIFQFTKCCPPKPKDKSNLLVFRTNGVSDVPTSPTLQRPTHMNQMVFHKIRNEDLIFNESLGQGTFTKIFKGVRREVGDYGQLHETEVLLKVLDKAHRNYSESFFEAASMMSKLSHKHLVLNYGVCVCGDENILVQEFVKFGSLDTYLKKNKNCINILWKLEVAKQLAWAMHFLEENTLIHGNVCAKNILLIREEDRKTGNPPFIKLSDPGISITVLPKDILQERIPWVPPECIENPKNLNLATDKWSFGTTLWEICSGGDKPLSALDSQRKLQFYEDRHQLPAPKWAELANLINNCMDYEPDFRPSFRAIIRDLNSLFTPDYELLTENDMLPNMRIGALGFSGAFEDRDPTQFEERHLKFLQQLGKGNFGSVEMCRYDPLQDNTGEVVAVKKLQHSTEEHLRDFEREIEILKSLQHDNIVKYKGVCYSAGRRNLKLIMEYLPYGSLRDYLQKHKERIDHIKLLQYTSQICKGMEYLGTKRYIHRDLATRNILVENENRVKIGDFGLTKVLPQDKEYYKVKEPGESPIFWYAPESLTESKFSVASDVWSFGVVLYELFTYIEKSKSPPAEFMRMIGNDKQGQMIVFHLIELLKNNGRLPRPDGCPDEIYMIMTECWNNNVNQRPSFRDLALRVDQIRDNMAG
ROCK, sequence (Q13464 whole entry): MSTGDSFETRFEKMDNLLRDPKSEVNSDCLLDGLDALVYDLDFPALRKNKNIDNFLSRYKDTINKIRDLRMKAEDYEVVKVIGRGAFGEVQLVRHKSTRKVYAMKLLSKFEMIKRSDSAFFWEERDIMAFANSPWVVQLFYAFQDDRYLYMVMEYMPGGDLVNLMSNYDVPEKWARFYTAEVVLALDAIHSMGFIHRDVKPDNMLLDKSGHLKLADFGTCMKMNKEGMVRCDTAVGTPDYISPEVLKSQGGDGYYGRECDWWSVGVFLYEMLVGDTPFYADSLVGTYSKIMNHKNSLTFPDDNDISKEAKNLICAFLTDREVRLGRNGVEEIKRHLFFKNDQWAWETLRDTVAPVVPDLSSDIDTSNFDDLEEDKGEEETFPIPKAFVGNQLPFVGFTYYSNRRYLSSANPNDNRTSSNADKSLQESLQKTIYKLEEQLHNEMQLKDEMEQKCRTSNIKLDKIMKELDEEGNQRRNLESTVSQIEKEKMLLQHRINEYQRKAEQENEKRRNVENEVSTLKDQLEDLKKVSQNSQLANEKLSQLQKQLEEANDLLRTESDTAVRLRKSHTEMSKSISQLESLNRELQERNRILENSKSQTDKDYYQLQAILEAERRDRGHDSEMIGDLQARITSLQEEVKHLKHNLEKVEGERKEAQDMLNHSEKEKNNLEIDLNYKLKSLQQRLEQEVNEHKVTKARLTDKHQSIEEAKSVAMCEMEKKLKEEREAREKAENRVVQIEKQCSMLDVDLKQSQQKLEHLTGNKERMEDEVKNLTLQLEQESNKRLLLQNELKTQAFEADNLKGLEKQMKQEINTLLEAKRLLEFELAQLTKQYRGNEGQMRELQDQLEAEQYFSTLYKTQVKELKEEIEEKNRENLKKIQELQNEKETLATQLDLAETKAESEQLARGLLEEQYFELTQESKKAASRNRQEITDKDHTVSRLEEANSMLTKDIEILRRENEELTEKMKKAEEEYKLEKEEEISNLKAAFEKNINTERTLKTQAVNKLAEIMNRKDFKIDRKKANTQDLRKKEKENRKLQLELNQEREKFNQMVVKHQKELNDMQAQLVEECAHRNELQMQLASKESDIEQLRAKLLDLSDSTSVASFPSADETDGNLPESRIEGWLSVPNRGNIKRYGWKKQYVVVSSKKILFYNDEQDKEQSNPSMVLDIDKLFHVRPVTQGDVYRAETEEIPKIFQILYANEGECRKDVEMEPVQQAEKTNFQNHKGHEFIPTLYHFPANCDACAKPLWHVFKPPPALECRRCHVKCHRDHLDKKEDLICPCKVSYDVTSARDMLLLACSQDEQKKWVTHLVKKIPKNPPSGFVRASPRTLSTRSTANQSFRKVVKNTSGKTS
Aurora-B, sequence (Q96GD4 whole entry): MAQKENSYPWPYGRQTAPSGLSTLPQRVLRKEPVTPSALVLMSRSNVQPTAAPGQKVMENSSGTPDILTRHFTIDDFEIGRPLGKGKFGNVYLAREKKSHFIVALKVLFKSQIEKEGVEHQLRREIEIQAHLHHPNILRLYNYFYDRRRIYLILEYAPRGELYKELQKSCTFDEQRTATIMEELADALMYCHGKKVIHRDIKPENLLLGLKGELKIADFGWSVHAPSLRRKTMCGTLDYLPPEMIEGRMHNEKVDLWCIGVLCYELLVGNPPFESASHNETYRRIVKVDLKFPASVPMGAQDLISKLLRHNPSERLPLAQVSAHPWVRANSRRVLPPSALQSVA

Row | SMILES | pKi [1] | pKi [2] | pKi [3] | pKi [4] | pKi [5]
1 | COc1cnc2[nH]cc(-c3ccnc(N4CCCN(C(C)=O)CC4)n3)c2c1 [Compound 24] | > 6.30 | > 6.30 | > 6.30 | 5.30 to 6.30 | –
2 | COc1cnc2[nH]cc(-c3ccnc(N4C[C@@H](C)N(C(C)=O)[C@@H](C)C4)n3)c2c1 [Compound 25] | > 6.30 | > 6.30 | > 6.30 | > 6.30 | –
3 | COc1cnc2[nH]cc(-c3ccnc(N4CCCN(S(C)(=O)=O)CC4)n3)c2c1 [Compound 30] | > 6.30 | > 6.30 | > 6.30 | > 6.30 | –
4 | CC(=O)N1[C@H](C)CN(c2nc(-c3c[nH]c4ncc(Cl)cc34)ccc2C(N)=O)C[C@@H]1C [Compound 32] | > 6.30 | > 6.30 | 5.30 to 6.30 | > 6.30 | –

Other lines, results leading:

Row | pKi [1] | pKi [2] | pKi [3] | pKi [4] | pKi [5] | SMILES
5 | > 6.30 | > 6.30 | 5.30 to 6.30 | > 6.30 | – | Clc1cnc2[nH]cc(-c3cccc(NCc4ccccc4)n3)c2c1 [Compound 20]
6 | – | – | 5.30 to 6.30 | > 6.30 | 5.30 to 6.30 | Nc1ccc(-c2c(-c3ccccc3)[nH]c3ncc(Br)cc23)cc1 [Compound 212]
